Source: patent US4581354A, “3-arylcarbonyl- and 3-cycloalkylcarbonyl-1-aminoalkyl-1H-indoles, compositions and use” (Sterling Drug Inc., priority 1985, dated 1986)
Read-outs that look alike come from different tables or passages of the source.

Assays:
[1] = test system: acetylcholine-induced abdominal constriction; assay: animal or person; type: in vivo, mice; settings: for inhibition in vivo at 1 mg/kg: 1 mg./kg. i.v.; for inhibition in vivo at 3 mg/kg: 3 mg./kg. i.v.; for inhibition in vivo at 10 mg/kg: 10 mg./kg. i.v.
bradykinin = assay: anti-bradykinin test (BRDK); type: in vivo; settings: for inhibition in vivo at 50 mg/kg: 50 mg./kg. oral; for inhibition in vivo at 200 mg/kg: 200 mg./kg. oral; for inhibition in vivo at 30 mg/kg: 30 mg./kg. oral; for inhibition in vivo at 300 mg/kg: 300 mg./kg. oral; for inhibition in vivo at 100 mg/kg: 100 mg./kg. oral
Source text: The test procedures used to determine the analgesic activities of the compounds have been described in detail in the prior art and are as follows: The acetylcholine-induced abdominal constriction test, which is a primary analgesic screening test designed to measure the ability of a test agent to suppress acetylcholine-induced abdominal constriction in mice, described by Collier et al., Brit. J. Pharmacol. Chemotherap. 32, 295 (1968); a modification of the anti-bradykinin test, which is also a primary analgesic screening procedure, described by Berkowitz et al., J. Pharmacol. Exptl. Therap. 177, 500-508 (1971), Blane et al., J. Pharm. Pharmacol. 19, 367-373 (1967), Botha et al., Eur. J. Pharmacol. 6, 312-321 (1969) and Deffenu et al., J. Pharm. Pharmacol. 18, 135 (1966); and the rat paw flexion test, described by Kuzuna et al., Chem. Pharm. Bull., 23, 1184-1191 (1975), Winter et al., J. Pharm. Exptl. Therap., 211, 678-685 (1979) and Capetola et al., J. Pharm. Exptl. Therap. 214, 16-23 (1980).
Unless noted otherwise, all data were obtained on oral administration and are expressed either as the ED50 or as the percent inhibition at a given dose level (thus 30/100 or 30% inhibition at […].)
In some instances, the compounds were retested two or more times, and ED50 values were calculated for each series of repeat tests. In such instances, each of the ED50 values so-obtained is given in a series of values, thus 6, 28, 30, 43 in the case of the species of Example 1AW in the acetylcholine-induced abdominal constriction test.

[2] = Mus musculus, po, read-out: Ach ED50
[3] = read-out: BRDK percent inhibition
[4] = Mus musculus, iv, read-out: Ach ED50
[5] = Mus musculus, iv, read-out: Ach percent inhibition
[6] = Mus musculus, po, 100 mg./kg. oral, read-out: Ach percent inhibition
[7] = Mus musculus, po, 100 mg./kg. oral, Table D, formula II intermediates (Preparations), read-out: Ach percent inhibition

COc1ccc(C(=O)c2cn(CCN3CCOCC3)c3ccccc23)cc1.CS(=O)(=O)O.O [Example 1A, 3-(4-methoxybenzoyl)-1-[2-(4-morpholinyl)ethyl]-1H-indole methanesulfonate monohydrate]
ED50 [1, 2]: 73 mg/kg
ED50 (bradykinin; po): 56 mg/kg

O=C(c1ccccc1)c1cn(CCN2CCOCC2)c2ccccc12 [Example 1AP]
ED50 [1, 2]: 42 mg/kg
inhibition in vivo at 50 mg/kg (bradykinin; [3]): 0%
inhibition in vivo at 200 mg/kg (bradykinin; [3]): 33%
inhibition in vivo at 400 mg/kg (bradykinin; 400 mg./kg. oral, read-out: BRDK percent inhibition): 60%

Cc1c(C(=O)c2cccs2)c2ccccc2n1CCN1CCOCC1 [Example 1AT]
ED50 [1, 2]: 30 mg/kg
inhibition in vivo at 50 mg/kg (bradykinin; [3]): 0%
inhibition in vivo at 200 mg/kg (bradykinin; [3]): 0%

COc1ccc2c(C(=O)c3ccc(Cl)cc3)c(C)n(CCN3CCOCC3)c2c1 [Example 1AU]
ED50 [1, 2]: 42 mg/kg
inhibition in vivo at 50 mg/kg (bradykinin; [3]): 0%

COc1ccc2c(C(=O)c3cccs3)c(C)n(CCN3CCOCC3)c2c1 [Example 1AV]
ED50 [1, 2]: 38 mg/kg
inhibition in vivo at 50 mg/kg (bradykinin; [3]): 0%

Cc1c(C(=O)c2ccccc2)c2ccccc2n1CC(C)N1CCOCC1 (stereo not shown) [Example 1AX]
ED50 [1, 2]: 45 mg/kg
inhibition in vivo at 212 mg/kg (bradykinin; 212 mg./kg. oral, read-out: BRDK percent inhibition): 0%

COc1ccc(C(=O)c2c(C)n(CCN3CCOCC3)c3ccccc23)cc1 [Example 1B, 2-methyl-3-(4-methoxybenzoyl)-1-[2-(4-morpholinyl)ethyl]-1H-indole]
ED50 [1, 4]: 6.7 mg/kg
ED50 (bradykinin; iv): 8.1 mg/kg

COc1ccc(C(=O)c2c(C)n(CCN3CCOCC3)c3ccccc23)c2ccccc12 [Example 1BI]
ED50 [1, 4]: 0.69 mg/kg
inhibition in vivo at 300 mg/kg ([1]; Mus musculus, po, 300 mg./kg. oral, read-out: Ach percent inhibition): 13%
inhibition in vivo at 100 mg/kg ([1]; Mus musculus, sc, 100 mg./kg. s.c., read-out: Ach percent inhibition): 27%
inhibition in vivo at 6 mg/kg (bradykinin; 6 mg./kg. oral, read-out: BRDK percent inhibition): 0%

Cc1c(C(=O)c2cc3ccccc3o2)c2ccccc2n1CCN1CCOCC1 [Example 1S]
inhibition in vivo at 1 mg/kg [1, 5]: 10%
inhibition in vivo at 3 mg/kg [1, 5]: 20%
inhibition in vivo at 10 mg/kg [1, 5]: 100%
ED50 [1, 2]: 40 mg/kg
ED50 (bradykinin; po): 162 mg/kg

Cc1c(C(=O)c2ccccc2F)c2ccccc2n1C(C)CN1CCOCC1 (stereo not shown) [Example 2C]
ED50 [1, 4]: 3.3 mg/kg
ED50 [1, 2]: 19 mg/kg
inhibition in vivo at 30 mg/kg (bradykinin; [3]): 0%
inhibition in vivo at 300 mg/kg (bradykinin; [3]): 60%

Cc1c(C(=O)c2cccc(N)c2)c2ccccc2n1CCN1CCOCC1 [Example 4A, 2-methyl-3-(3-aminobenzoyl)-1-[2-(4-morpholinyl)ethyl]-1H-indole]
ED50 [1, 2]: 16 mg/kg
ED50 (bradykinin; po): 53 mg/kg

CC(=O)Nc1ccc(C(=O)c2c(C)n(CCN3CCOCC3)c3ccccc23)cc1 [Example 5A, 2-methyl-3-(4-acetylaminobenzoyl)-1-[2-(4-morpholinyl)ethyl]-1H-indole]
inhibition in vivo at 1 mg/kg [1, 5]: 20%
inhibition in vivo at 3 mg/kg [1, 5]: 29%
inhibition in vivo at 10 mg/kg [1, 5]: 30%
ED50 [1, 2]: 31 mg/kg
inhibition in vivo at 300 mg/kg (bradykinin; [3]): 0%

Cc1c(C(=O)c2ccc(NC(=O)C(F)(F)F)cc2)c2ccccc2n1CCN1CCOCC1 [Example 5C, 2-methyl-3-[4-(N-trifluoroacetylamino)benzoyl]-1-[2-(4-morpholinyl)ethyl]-1H-indole]
ED50 [1, 2]: 19 mg/kg
inhibition in vivo at 30 mg/kg (bradykinin; [3]): 20%
inhibition in vivo at 100 mg/kg (bradykinin; [3]): 60%
inhibition in vivo at 300 mg/kg (bradykinin; [3]): 60%

Cc1c(C(=O)c2ccc(NC(=O)c3ccccc3)cc2)c2ccccc2n1CCN1CCOCC1 [Example 5D]
inhibition in vivo at 3 mg/kg [1, 5]: 57%
ED50 [1, 4]: 29.1 mg/kg
ED50 [1, 2]: 84 mg/kg
inhibition in vivo at 200 mg/kg (bradykinin; [3]): 20%

Cc1c(C(=O)c2ccc(O)cc2)c2ccccc2n1CCN1CCOCC1.Cl [Example 6, 2-methyl-3-(4-hydroxybenzoyl)-1-[2-(4-morpholinyl)ethyl]-1H-indole hydrochloride]
inhibition in vivo at 10 mg/kg [1, 5]: 0%
inhibition in vivo at 30 mg/kg ([1]; Mus musculus, iv, 30 mg./kg. i.v., read-out: Ach percent inhibition): 0%
ED50 [1, 2]: 83 mg/kg
inhibition in vivo at 30 mg/kg ([1]; Mus musculus, sc, 30 mg./kg. s.c., read-out: Ach percent inhibition): 13%
inhibition in vivo at 100 mg/kg (bradykinin; [3]): 0%
inhibition in vivo at 300 mg/kg (bradykinin; [3]): 0%

Cc1c(C(=O)c2ccc(CN)cc2)c2ccccc2n1CCN1CCOCC1.Cl.Cl [Example 7, 2-methyl-3-(4-aminomethylbenzoyl)-1-[2-(4-morpholinyl)ethyl]-1H-indole dihydrochloride]
ED50 [1, 2]: 40 mg/kg
inhibition in vivo at 300 mg/kg (bradykinin; [3]): 0%

Cc1c(C(=O)c2ccccc2)c2cc(O)ccc2n1CCN1CCOCC1 [Example 30, 3-benzoyl-5-hydroxy-2-methyl-1-[2-(4-morpholinyl)ethyl]-1H-indole]
inhibition in vivo at 100 mg/kg [1, 6]: 10%

CCN(CC)CC(O)Cn1c(C)c(C(=O)c2ccc(OC)cc2)c2ccccc21 (stereo not shown) [Example 31-O]
inhibition in vivo at 100 mg/kg [1, 6]: 100%

COc1ccc(C(=O)c2c(C)n(CC(O)CN3CCOCC3)c3ccc(F)cc23)cc1.Cl.O (stereo not shown) [Example 31A, 1-[2-hydroxy-3-(4-morpholinyl)propyl]-5-fluoro-2-methyl-3-(4-methoxybenzoyl)-1H-indole hydrochloride hydrate]
ED50 [1, 2]: 58 mg/kg

COc1ccc(C(=O)c2c(C)n(CC(O)CN3CCCC3)c3ccc(F)cc23)cc1 (stereo not shown) [Example 31C]
ED50 [1, 2]: 53 mg/kg

Cc1c(C(=O)c2cccc3ccccc23)c2ccccc2n1CC(O)CN1CCCC1 (stereo not shown) [Example 31F]
inhibition in vivo at 3 mg/kg [1, 5]: 0%

COc1ccc(C(=O)c2c(C)n(CC(O)CN3CCOCC3)c3ccccc23)cc1 (stereo not shown) [Example 31G]
ED50 [1, 2]: 133 mg/kg

COc1ccc(C(=O)c2c(C)n(CC(O)CN3CCCC3)c3ccccc23)cc1 (stereo not shown) [Example 31H]
inhibition in vivo at 10 mg/kg [1, 5]: 80%
ED50 [1, 2]: 56 mg/kg

COc1ccc(C(=O)c2c(C)n(CC(O)CN=[N+]=[N-])c3ccccc23)cc1 (stereo not shown) [Example 31J, 1-(3-azido-2-hydroxy-1-propyl)-2-methyl-3-(4-methoxybenzoyl)-1H-indole]
inhibition in vivo at 100 mg/kg [1, 6]: 10%

COc1ccc(C(=O)c2c(C)n(CC(O)CN3CCC3)c3ccccc23)cc1 (stereo not shown) [Example 31K]
ED50 [1, 2]: 28 mg/kg

COc1ccc(C(=O)c2c(C)n(CC(O)CN(C)C)c3ccccc23)cc1 (stereo not shown) [Example 31L]
ED50 [1, 2]: 32 mg/kg

COc1ccc(C(=O)c2c(C)n(CC(O)CNC(C)C)c3ccccc23)cc1 (stereo not shown) [Example 31M]
ED50 [1, 2]: 26 mg/kg

CCNCC(O)Cn1c(C)c(C(=O)c2ccc(OC)cc2)c2ccccc21 (stereo not shown) [Example 31N]
inhibition in vivo at 100 mg/kg [1, 6]: 90%

COc1ccc(C(=O)c2c(C)n(CC(O)CN)c3ccccc23)cc1 (stereo not shown) [Example 32, 1-(3-amino-2-hydroxy-1-propyl)-2-methyl-3-(4-methoxybenzoyl)-1H-indole]
ED50 [1, 2]: 85 mg/kg

Cc1[nH]c2ccccc2c1C(=O)c1ccccc1-c1ccccc1 [Preparation 1AK]
inhibition in vivo at 100 mg/kg [1, 7]: 20%

Cc1[nH]c2ccccc2c1C(=O)c1ccc(-c2ccccc2)cc1 [Preparation 1AL]
inhibition in vivo at 100 mg/kg [1, 7]: 20%

COc1cc(OC)cc(C(=O)c2c(C)[nH]c3ccccc23)c1 [Preparation 1AO]
inhibition in vivo at 100 mg/kg [1, 7]: 40%

COc1ccc(C(=O)c2c(C)[nH]c3ccc(F)cc23)cc1 [Preparation 1F, 2-methyl-5-fluoro-3-(4-methoxybenzoyl)indole]
inhibition in vivo at 100 mg/kg [1, 7]: 0%

CS(=O)(=O)O.Cc1cc2ccccc2n1C(C)CN1CCOCC1.O (stereo not shown) [Preparation 5A, 2-methyl-1-[1-methyl-2-(4-morpholinyl)ethyl]-1H-indole methanesulfonate hydrate]
inhibition in acetylcholine-induced abdominal constriction test ([1]; 300 mg./kg. (p.o.), Preparations): 40%

Cc1cc2cc(F)ccc2n1C(C)CN(C)C (stereo not shown) [Preparation 8, 5-fluoro-2-methyl-1-(1-methyl-2-dimethylaminoethyl)-1H-indole]
ED50 ([1]; Mus musculus, po, Preparations, read-out: ED50 in acetylcholine-induced abdominal constriction test): 25 mg/kg
